In paper PMC3643963, “Enhancement of Proteolytic Activity of a Thermostable Papain-Like Protease by Structure-Based Rational Design” (PLoS ONE, 2013):

How the values were obtained:
Assay in all cases: residual activity, pNA release at […] nm
Assay type in all cases: biochemical
Details in all cases: read-out: IC50 against E-64
Ervatamin-C (Erv-C) [1] = biological target: Ervatamin-C (Erv-C) (Tabernaemontana divaricata, UniProt A8DS38, A200Y/S165T)
Ervatamin-C (Erv-C) [2] = biological target: Ervatamin-C (Erv-C) (Tabernaemontana divaricata, UniProt A8DS38)
Chain of Ervatamin-C (Erv-C) (Tabernaemontana divaricata, UniProt A8DS38) (A8DS38 134-341): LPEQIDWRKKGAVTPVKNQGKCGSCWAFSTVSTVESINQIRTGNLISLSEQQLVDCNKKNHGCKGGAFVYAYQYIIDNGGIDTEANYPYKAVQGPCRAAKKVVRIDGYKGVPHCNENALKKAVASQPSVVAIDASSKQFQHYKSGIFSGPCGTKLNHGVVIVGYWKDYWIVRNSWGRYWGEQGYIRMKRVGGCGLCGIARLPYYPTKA

Ervatamin-C (Erv-C) [3] = biological target: Ervatamin-C (Erv-C) (Tabernaemontana divaricata, UniProt A8DS38, A200Y)
Chain of Ervatamin-C (Erv-C) (Tabernaemontana divaricata, UniProt A8DS38, A200Y) (A8DS38 134-341 A200Y): as the sequence (A8DS38 134-341) above, with A67Y counted along it

Chain of Ervatamin-C (Erv-C) (Tabernaemontana divaricata, UniProt A8DS38, A200Y/S165T) (A8DS38 134-341 S165T/A200Y): as the sequence (A8DS38 134-341) above, with S32T, A67Y counted along it

## CC(C)C[C@H](NC(=O)[C@H]1O[C@@H]1C(=O)O)C(=O)NCCCCN=C(N)N [E-64]
Ervatamin-C (Erv-C) [1]
  IC50: 171 nM
Ervatamin-C (Erv-C) [2]
  IC50: 349 nM
Ervatamin-C (Erv-C) [3]
  IC50: 251 nM
